Patent US12410160B2 (Gilead Sciences, Inc., priority 2021, dated 2025)

Assays:
human KHK-A = human KHK-A (Homo sapiens (Human), UniProt P50053); experiment: KHK Biochemical Assay (IC50), ADP-Glo, KHK-A; conditions: ADP-Glo; average of at least two separate assays
Method in brief: (§1)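 His-tagged enzyme expressed in BL21 (DE3), Ni-NTA purified. Compounds, serially diluted 1:3 in DMSO, pre-incubated 30 min with enzyme in 50 mM Hepes pH 7.4, 140 mM KCl, 5 mM MgCl2, 0.01% Triton-X, then ATP and fructose added; 4 h at room temperature. ADP formation read by ADP-Glo luminescence.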

human KHK-C = human KHK-C (Homo sapiens (Human), UniProt P50053); experiment: KHK Biochemical Assay (IC50), ADP-Glo, KHK-C; conditions: ADP-Glo; average of at least two separate assays
Method in brief: as §1

Chain of human KHK-A (P50053 other isoform, or with tags, fused parts or gaps): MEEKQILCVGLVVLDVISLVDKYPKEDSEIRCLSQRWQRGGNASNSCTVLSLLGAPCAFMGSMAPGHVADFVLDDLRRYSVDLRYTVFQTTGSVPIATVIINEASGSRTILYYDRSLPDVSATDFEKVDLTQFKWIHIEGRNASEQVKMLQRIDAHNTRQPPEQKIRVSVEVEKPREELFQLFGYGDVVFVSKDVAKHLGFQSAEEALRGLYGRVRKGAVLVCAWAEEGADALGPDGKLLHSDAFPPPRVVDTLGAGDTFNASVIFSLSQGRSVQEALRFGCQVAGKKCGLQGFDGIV
Chain of human KHK-C (P50053 whole entry): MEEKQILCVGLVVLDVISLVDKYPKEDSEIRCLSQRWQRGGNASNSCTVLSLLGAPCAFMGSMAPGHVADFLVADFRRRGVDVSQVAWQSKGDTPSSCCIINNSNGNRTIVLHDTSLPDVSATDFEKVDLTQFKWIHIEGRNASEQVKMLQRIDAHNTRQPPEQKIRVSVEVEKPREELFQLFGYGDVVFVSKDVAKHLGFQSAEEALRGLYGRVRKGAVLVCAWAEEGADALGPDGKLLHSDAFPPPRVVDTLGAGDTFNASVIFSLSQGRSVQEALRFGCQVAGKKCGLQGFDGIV

IC50 (human KHK-A) [nM] | IC50 (human KHK-C) [nM] | Structure (SMILES)
> 5000 | > 5000 | C[C@H]1CCN1c1nc2c(c(-c3ccc4[nH]nc(C(F)(F)F)c4c3)n1)CCC2 [Example 243, 5-[2-[(2S)-2-methylazetidin-1-yl]-6,7-dihydro-5H-cyclopenta[d]pyrimidin-4-yl]-3-(trifluoromethyl)-1H-indazole]
380 | 312 | C[C@H]1CCN1c1nc2c(c(-c3cnn(C(F)F)c3)n1)CCC2 [Example 259, 4-[1-(difluoromethyl)pyrazol-4-yl]-2-[(2S)-2-methylazetidin-1-yl]-6,7-dihydro-5H-cyclopenta[d]pyrimidine]
746 | 633 | C[C@H]1CCN1c1nc2c(c(-c3ccccc3O)n1)CCC2 [Example 260, 2-[2-[(2S)-2-methylazetidin-1-yl]-6,7-dihydro-5H-cyclopenta[d]pyrimidin-4-yl]phenol]
133 | 153 | C[C@H]1CCN1c1nc2c(c(-c3cccc(O)c3)n1)CCC2 [Example 261, 3-[2-[(2S)-2-methylazetidin-1-yl]-6,7-dihydro-5H-cyclopenta[d]pyrimidin-4-yl]phenol]
180 | 141 | C[C@H]1CCN1c1nc2c(c(-c3ccc(O)cc3)n1)CCC2 [Example 262, 4-[2-[(2S)-2-methylazetidin-1-yl]-6,7-dihydro-5H-cyclopenta[d]pyrimidin-4-yl]phenol]
758 | 646 | C[C@H]1CCN1c1nc2c(c(-c3ccc4c(c3)NC(=O)C4(C)C)n1)CCC2 [Example 264, 3,3-dimethyl-6-[2-[(2S)-2-methylazetidin-1-yl]-6,7-dihydro-5H-cyclopenta[d]pyrimidin-4-yl]indolin-2-one]
433 | 532 | C[C@H]1CCN1c1nc(-c2ccns2)c2c(n1)C1CC1C2 (stereo partly drawn) [Example 273, 5-(2-((S)-2-methylazetidin-1-yl)-5,5a,6,6a-tetrahydrocyclopropa[4,5]cyclopenta[1,241]pyrimidin-4-yl)isothiazole]
159 | 201 | C[C@H]1CCN1c1nc2c(c(-c3cccc(-c4ccn[nH]4)c3)n1)CCC2 [Example 279, (S)-4-(3-(1H-pyrazol-5-yl)phenyl)-2-(2-methylazetidin-1-yl)-6,7-dihydro-5H-cyclopenta[d]pyrimidine]
122 | 188 | CNC(=O)c1ccc(-c2nc(N3CC[C@@H]3C)nc3c2CCC3)cn1 [Example 280, (S)—N-methyl-5-(2-(2-methylazetidin-1-yl)-6,7-dihydro-5H-cyclopenta[d]pyrimidin-4-yl)picolinamide]
42.6 | 48.2 | C[C@H]1CCN1c1nc2c(c(-c3ccnc(NCCO)c3)n1)CCC2 [Example 282]
718 | 753 | C[C@H]1[C@H](O)CN1c1nc2c(c(-c3cccc(S(N)(=O)=O)c3)n1)CCOC2 [Example 286]
141 | 98 | C[C@H]1CCN1c1nc2c(c(-c3ccc(N4CCOCC4)nc3)n1)CCC2 [Example 291, (S)-4-(5-(2-(2-methylazetidin-1-yl)-6,7-dihydro-5H-cyclopenta[d]pyrimidin-4-yl)pyridin-2-yl)morpholine]
65.7 | 89.1 | CNC(=O)c1ccc(-c2nc(N3CC[C@@H]3C)nc3c2CCC3)cc1 [Example 292, (S)—N-methyl-4-(2-(2-methylazetidin-1-yl)-6,7-dihydro-5H-cyclopenta[d]pyrimidin-4-yl)benzamide]
153 | 200 | C[C@H]1CCN1c1nc2c(c(-c3ccc(C(=O)N(C)C)cc3)n1)CCC2 [Example 293, (S)—N,N-dimethyl-4-(2-(2-methylazetidin-1-yl)-6,7-dihydro-5H-cyclopenta[d]pyrimidin-4-yl)benzamide]
3890 | 3400 | C[C@H]1CCN1c1nc2c(c(-c3ccc(C4(NC(=O)OC(C)(C)C)CC4)cc3)n1)CCC2 [Example 294, (S)-tert-butyl (1-(4-(2-(2-methylazetidin-1-yl)-6,7-dihydro-5H-cyclopenta[d]pyrimidin-4-yl)phenyl)cyclopropyl)carbamate]
2090 | 3000 | C[C@H]1CCN1c1nc2c(c(-c3ccc(C(=O)Nc4ccccc4)cc3)n1)CCC2 [Example 296, (S)-4-(2-(2-methylazetidin-1-yl)-6,7-dihydro-5H-cyclopenta[d]pyrimidin-4-yl)-N-phenylbenzamide]
847 | 2840 | C[C@H]1CCN1c1nc2c(c(-c3cccc(C(=O)Nc4ccccc4)c3)n1)CCC2 [Example 297, (S)-3-(2-(2-methylazetidin-1-yl)-6,7-dihydro-5H-cyclopenta[d]pyrimidin-4-yl)-N-phenylbenzamide]

IC50 (human KHK-A) [nM] | IC50 (human KHK-C) [nM] | Structure (SMILES)
374 | 247 | C[C@H]1CCN1c1nc2c(c(-c3cc(C(N)=O)cc([N+](=O)[O-])c3)n1)CCC2 [Example 298, (S)-3-(2-(2-methylazetidin-1-yl)-6,7-dihydro-5H-cyclopenta[d]pyrimidin-4-yl)-5-nitrobenzamide]
47.3 | 45.6 | C[C@H]1CCN1c1nc2c(c(-c3cc(N)cc(C(N)=O)c3)n1)CCC2 [Example 299, (S)-3-amino-5-(2-(2-methylazetidin-1-yl)-6,7-dihydro-5H-cyclopenta[d]pyrimidin-4-yl)benzamide]
42.8 | 33.6 | C[C@H]1CCN1c1nc2c(c(-c3cc(NS(C)(=O)=O)cc(C(N)=O)c3)n1)CCC2 [Example 300, (S)-3-(2-(2-methylazetidin-1-yl)-6,7-dihydro-5H-cyclopenta[d]pyrimidin-4-yl)-5-(methylsulfonamido)benzamide]
9.9 | 3.7 | C[C@H]1[C@H](O)CN1c1nc2c(c(-c3ccc(C4(N)CC4)cc3)n1)CCC2 [Example 301, (2S,3R)-1-(4-(4-(1-aminocyclopropyl)phenyl)-6,7-dihydro-5H-cyclopenta[d]pyrimidin-2-yl)-2-methylazetidin-3-ol]
440 | 452 | Cc1ncc(-c2nc(N3CC[C@@H]3C)nc3c2CCC3)o1 [Example 325, 2-methyl-5-[2-[(2S)-2-methylazetidin-1-yl]-6,7-dihydro-5H-cyclopenta[d]pyrimidin-4-yl]oxazole]
231 | 228 | Cc1cc(-c2nc(N3CC[C@@H]3C)nc3c2CCC3)on1 [Example 326, 3-methyl-5-[2-[(2S)-2-methylazetidin-1-yl]-6,7-dihydro-5H-cyclopenta[d]pyrimidin-4-yl]isoxazole]
96.8 | 38.2 | Cc1cc(-c2nc(N3CC[C@@H]3C)nc3c2CCC3)sn1 [Example 327, 3-methyl-5-[2-[(2S)-2-methylazetidin-1-yl]-6,7-dihydro-5H-cyclopenta[d]pyrimidin-4-yl]isothiazole]
609 | 502 | C[C@H]1CCN1c1nc2c(c(-c3cccc(CNC(=O)OC(C)(C)C)c3)n1)CCC2 [Example 328, tert-butyl N-[[3-[2-[(2S)-2-methylazetidin-1-yl]-6,7-dihydro-5H-cyclopenta[d]pyrimidin-4-yl]phenyl]methyl]carbamate]
> 50000 | > 50000 | C[C@H]1CCN1c1nc2c(c(-c3ccccc3)n1)CC1(CC1)C2 [Example 335, 2-[(2S)-2-methylazetidin-1-yl]-4-phenyl-spiro[5,7-dihydrocyclopenta[d]pyrimidine-6,1′-cyclopropane]]
13200 | 20100 | CC1CCc2c(-c3ccccc3)nc(N3CC[C@@H]3C)nc21 (stereo partly drawn) [Example 336, 7-methyl-2-[(2S)-2-methylazetidin-1-yl]-4-phenyl-6,7-dihydro-5H-cyclopenta[d]pyrimidine]
2950 | 5100 | CC1Cc2nc(N3CC[C@@H]3C)nc(-c3ccccc3)c2C1 (stereo partly drawn) [Example 337, 6-methyl-2-[(2S)-2-methylazetidin-1-yl]-4-phenyl-6,7-dihydro-5H-cyclopenta[d]pyrimidine]
> 50000 | > 50000 | C[C@H]1CCN1c1nc(-c2ccccc2)c2c(n1)C1(CC2)CC1 [Example 338, 2-[(2S)-2-methylazetidin-1-yl]-4-phenyl-spiro[5,6-dihydrocyclopenta[d]pyrimidine-7,1′-cyclopropane]]
1900 | 2220 | CC1CCc2nc(N3CC[C@@H]3C)nc(-c3ccccc3)c21 (stereo partly drawn) [Example 339, 5-methyl-2-[(2S)-2-methylazetidin-1-yl]-4-phenyl-6,7-dihydro-5H-cyclopenta[d]pyrimidine]
107 | 107 | Cc1cnc(-c2nc(N3CC[C@@H]3C)nc3c2CCC3)s1 [Example 342, 5-methyl-2-[2-[(2S)-2-methylazetidin-1-yl]-6,7-dihydro-5H-cyclopenta[d]pyrimidin-4-yl]thiazole]
357 | 408 | C[C@H]1CCN1c1nc2c(c(-c3ccnnc3)n1)CCC2 [Example 343, 2-[(2S)-2-methylazetidin-1-yl]-4-pyridazin-4-yl-6,7-dihydro-5H-cyclopenta[d]pyrimidine]
175 | 224 | C[C@H]1CCN1c1nc2c(c(-c3cnccn3)n1)CCC2 [Example 344, 2-[(2S)-2-methylazetidin-1-yl]-4-pyrazin-2-yl-6,7-dihydro-5H-cyclopenta[d]pyrimidine]

Structure (SMILES) | IC50 (human KHK-A) [nM] | IC50 (human KHK-C) [nM]
C[C@H]1CCN1c1nc2c(c(-c3ccc(C4(N5CCN(C)CC5)CC4)cc3)n1)CCC2 [Example 302, (S)-2-(2-methylazetidin-1-yl)-4-(4-(1-(4-methylpiperazin-1-yl)cyclopropyl)phenyl)-6,7-dihydro-5H-cyclopenta[d]pyrimidine] | 636 | 849
C[C@H]1CCN1c1nc2c(c(-c3ccc(C4(N5CCOCC5)CC4)cc3)n1)CCC2 [Example 304, (S)-4-(1-(4-(2-(2-methylazetidin-1-yl)-6,7-dihydro-5H-cyclopenta[d]pyrimidin-4-yl)phenyl)cyclopropyl)morpholine] | 983 | 786
